What was measured:
MMP12h = MMP12h (Homo sapiens, UniProt P39900); details: read-out: Ki with respect to MMP12h; competitor used in strip and EIA tests; described in Devel et al, 2006; cited from earlier work
human MMP 2 = target: T1, human MMP 2 (Homo sapiens, UniProt P08253); assay: Ki determination with fluorogenic substrate MCA-Mat, human MMP2; format: biochemical; details: recombinant MMP 2 h at 0.05 nM, 100 μL, MCA-Mat 15 μM
T1 sequence (P08253 110-660): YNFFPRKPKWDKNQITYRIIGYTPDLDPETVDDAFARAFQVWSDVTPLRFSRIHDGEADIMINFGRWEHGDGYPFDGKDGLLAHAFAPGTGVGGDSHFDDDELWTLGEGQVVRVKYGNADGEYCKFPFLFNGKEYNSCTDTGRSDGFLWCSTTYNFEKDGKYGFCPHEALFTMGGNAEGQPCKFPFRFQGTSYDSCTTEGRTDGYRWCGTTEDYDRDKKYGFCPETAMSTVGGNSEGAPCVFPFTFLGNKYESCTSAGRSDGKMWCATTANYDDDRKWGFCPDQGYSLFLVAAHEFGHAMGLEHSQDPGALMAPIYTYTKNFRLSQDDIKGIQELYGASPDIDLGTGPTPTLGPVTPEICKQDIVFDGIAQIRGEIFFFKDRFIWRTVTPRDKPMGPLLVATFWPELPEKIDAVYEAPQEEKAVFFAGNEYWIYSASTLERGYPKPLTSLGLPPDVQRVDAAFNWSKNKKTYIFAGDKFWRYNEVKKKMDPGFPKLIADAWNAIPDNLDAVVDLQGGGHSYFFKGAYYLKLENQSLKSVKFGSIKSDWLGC
Description: (§1) The inhibition constants Ki of compounds P1, P2, and P3 were determined in comparison to human MMPs 2, 3, 8, 9, 12, 13, 14 and to murine MMP12. Recombinant proteases were used in volumes of 100 μL at concentrations of 0.05, 0.3, 0.03, 0.05, 0.03, 0.015, and 0.5 nM respectively for human MMPs 2, 3, 8, 9, 12, 13, 14, and at a concentration of 0.1 nM for murine MMP12. […] Recall that the lower the Ki of a compound, the greater its potential for inhibiting the chosen target.

human MMP 3 = human MMP 3 (Homo sapiens, UniProt P08254); assay: Ki determination with fluorogenic substrate MCA-Mat, human MMP3; format: biochemical; details: recombinant MMP 3 h at 0.3 nM, 100 μL, MCA-Mat 15 μM
Description: as §1

human MMP 8 = human MMP 8 (Homo sapiens, UniProt P22894); assay: Ki determination with fluorogenic substrate MCA-Mat, human MMP8; format: biochemical; details: recombinant MMP 8 h at 0.03 nM, 100 μL, MCA-Mat 15 μM
Description: as §1

human MMP 9 = human MMP 9 (Homo sapiens, UniProt P14780); assay: Ki determination with fluorogenic substrate MCA-Mat, human MMP9; format: biochemical; details: recombinant MMP 9 h at 0.05 nM, 100 μL, MCA-Mat 15 μM
Description: as §1

human MMP 12 = human MMP 12 (Homo sapiens, UniProt P39900); assay: Ki determination with fluorogenic substrate MCA-Mat, human MMP12; format: biochemical; details: recombinant MMP 12 h at 0.03 nM, 100 μL, MCA-Mat 15 μM
Description: as §1

human MMP 13 = human MMP 13 (Homo sapiens, UniProt P45452); assay: Ki determination with fluorogenic substrate MCA-Mat, human MMP13; format: biochemical; details: recombinant MMP 13 h at 0.015 nM, 100 μL, MCA-Mat 15 μM
Description: as §1

human MMP 14 = human MMP 14 (Homo sapiens, UniProt P50281); assay: Ki determination with fluorogenic substrate MCA-Mat, human MMP14; format: biochemical; details: recombinant MMP 14 h at 0.5 nM, 100 μL, MCA-Mat 15 μM
Description: as §1

murine MMP12 = murine MMP12 (Mus musculus, UniProt P34960); assay: Ki determination with fluorogenic substrate MCA-Mat, murine MMP12; format: biochemical; details: recombinant MMP 12 m at 0.1 nM, 100 μL, MCA-Mat 15 μM
Description: as §1

human MMP 9, sequence (P14780 94-707): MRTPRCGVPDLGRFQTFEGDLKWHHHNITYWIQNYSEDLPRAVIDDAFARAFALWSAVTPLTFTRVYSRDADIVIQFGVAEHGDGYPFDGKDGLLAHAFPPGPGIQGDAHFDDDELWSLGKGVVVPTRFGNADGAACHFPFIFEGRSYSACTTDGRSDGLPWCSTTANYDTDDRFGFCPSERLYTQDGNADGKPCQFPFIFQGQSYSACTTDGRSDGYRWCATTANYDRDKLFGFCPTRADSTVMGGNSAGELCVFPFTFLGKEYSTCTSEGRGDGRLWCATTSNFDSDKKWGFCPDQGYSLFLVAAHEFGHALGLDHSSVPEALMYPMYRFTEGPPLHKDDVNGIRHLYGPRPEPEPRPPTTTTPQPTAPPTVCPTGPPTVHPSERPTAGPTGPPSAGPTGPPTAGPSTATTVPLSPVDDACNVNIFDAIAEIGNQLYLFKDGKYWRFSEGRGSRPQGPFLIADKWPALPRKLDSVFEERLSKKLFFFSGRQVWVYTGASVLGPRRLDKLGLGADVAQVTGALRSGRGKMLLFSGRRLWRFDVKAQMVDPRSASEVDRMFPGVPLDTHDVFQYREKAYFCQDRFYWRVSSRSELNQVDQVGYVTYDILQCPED
murine MMP12, sequence (P34960 110-473): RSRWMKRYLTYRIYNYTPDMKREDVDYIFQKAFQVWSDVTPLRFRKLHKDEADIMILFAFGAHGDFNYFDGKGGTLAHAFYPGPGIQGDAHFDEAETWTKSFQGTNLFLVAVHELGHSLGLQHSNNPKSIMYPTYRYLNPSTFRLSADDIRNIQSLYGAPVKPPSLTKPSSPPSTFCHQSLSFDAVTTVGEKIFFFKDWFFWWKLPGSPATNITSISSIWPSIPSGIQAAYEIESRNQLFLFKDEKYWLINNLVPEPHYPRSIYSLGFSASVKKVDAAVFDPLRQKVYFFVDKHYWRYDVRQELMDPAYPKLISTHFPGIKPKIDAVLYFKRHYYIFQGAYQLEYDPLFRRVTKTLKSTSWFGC
human MMP 8, sequence (P22894 101-467): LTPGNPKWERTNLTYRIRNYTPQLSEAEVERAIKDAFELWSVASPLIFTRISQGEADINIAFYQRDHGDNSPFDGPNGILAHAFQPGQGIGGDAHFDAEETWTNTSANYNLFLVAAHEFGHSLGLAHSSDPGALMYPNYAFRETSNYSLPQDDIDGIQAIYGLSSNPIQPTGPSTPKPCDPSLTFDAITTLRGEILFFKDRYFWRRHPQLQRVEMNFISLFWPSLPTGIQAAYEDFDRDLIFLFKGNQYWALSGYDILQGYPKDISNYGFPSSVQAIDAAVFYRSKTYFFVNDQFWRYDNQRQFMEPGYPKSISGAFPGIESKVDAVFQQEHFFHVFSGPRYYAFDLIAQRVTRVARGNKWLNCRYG
human MMP 3, sequence (P08254 100-477): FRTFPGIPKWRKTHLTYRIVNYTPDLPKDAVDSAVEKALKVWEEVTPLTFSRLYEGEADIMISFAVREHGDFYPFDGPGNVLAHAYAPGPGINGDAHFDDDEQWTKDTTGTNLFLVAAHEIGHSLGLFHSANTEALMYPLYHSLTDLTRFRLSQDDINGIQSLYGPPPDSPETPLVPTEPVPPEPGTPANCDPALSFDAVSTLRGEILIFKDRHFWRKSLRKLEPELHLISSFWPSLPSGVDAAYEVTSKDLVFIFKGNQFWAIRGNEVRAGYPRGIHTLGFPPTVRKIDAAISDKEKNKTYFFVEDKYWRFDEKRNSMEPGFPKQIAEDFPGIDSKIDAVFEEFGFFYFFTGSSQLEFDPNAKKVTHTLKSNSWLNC
human MMP 12, sequence (P39900 106-470): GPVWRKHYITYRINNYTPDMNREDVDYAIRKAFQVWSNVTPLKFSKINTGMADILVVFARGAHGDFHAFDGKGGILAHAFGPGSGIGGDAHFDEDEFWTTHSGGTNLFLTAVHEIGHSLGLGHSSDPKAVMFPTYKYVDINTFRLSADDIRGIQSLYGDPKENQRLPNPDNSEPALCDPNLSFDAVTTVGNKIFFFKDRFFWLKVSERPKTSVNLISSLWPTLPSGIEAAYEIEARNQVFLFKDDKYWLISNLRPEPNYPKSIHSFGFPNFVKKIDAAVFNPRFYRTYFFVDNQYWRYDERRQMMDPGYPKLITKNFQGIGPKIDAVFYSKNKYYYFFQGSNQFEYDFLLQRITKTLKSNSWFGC
MMP12h, sequence (P39900 106-470): as above

In the case of NC(=O)C(CCC(=O)O)NC(=O)C(CCC(=O)O)NC(=O)C(Cc1cc(-c2ccc(-c3cccc(Cl)c3)cc2)no1)CP(=O)(O)c1ccc(Br)cc1 (stereo not shown) [RXP470.1], the Ki (MMP12h) is given as 0.2 nM.

For CCC(=O)NOCCOCCOCCOCCOCCOCCOCCOCCOCCOCCOCCOCCOCOCCOCCOCCOCCOCCOCCOCCOCCOCCOCCOCCOCCOCCOCCOCCC(=O)N1CCC[C@H]1C(=O)N[C@@H](C)C(=O)N[C@@H](Cc1ccccc1)P(=O)(O)CC(Cc1cc(-c2ccc(-c3cccc(Cl)c3)cc2)no1)C(=O)N[C@@H](Cc1ccc(O)cc1)C(=O)N[C@@H](C)C(=O)NCC(=O)NCCCOCCOCCOCCCNC(=O)CCCCC1SCC2NC(=O)NC21 (stereo partly shown) [Ligand P3], the Ki (human MMP 2) was 0.3 nM, the Ki (human MMP 3) was 1.55 nM and the Ki (human MMP 8) was 0.47 nM. The Ki (human MMP 9) was 0.73 nM, the Ki (human MMP 12) was 0.26 nM and the Ki (human MMP 13) was 0.07 nM. It also gave a Ki (human MMP 14) of 1.82 nM and a Ki (murine MMP12) of 0.66 nM.

CC(=O)SCC(=O)NCCOCCOCCOCCOCCOCCOCCOCCOCCOCCOCCOCCOCCOCCOCCOCCOCCOCCOCCOCOCCOCCOCCOCCOCCOCCOCCOCCOCCC(=O)NCCCOCCOCCOCCCNC(=O)CNC(=O)[C@H](C)NC(=O)[C@H](Cc1ccc(O)cc1)NC(=O)C(Cc1cc(-c2ccc(-c3cccc(Cl)c3)cc2)no1)CP(=O)(O)[C@H](Cc1ccccc1)NC(=O)[C@H](C)NC(=O)[C@@H]1CCCN1C(C)=O (stereo partly shown) [Ligand P1] gave a Ki (human MMP 2) of 0.12 nM, a Ki (human MMP 3) of 0.75 nM and a Ki (human MMP 8) of 0.09 nM. It also gave a Ki (human MMP 9) of 0.28 nM, a Ki (human MMP 12) of 0.03 nM and a Ki (human MMP 13) of 0.017 nM. For the same compound, the Ki (human MMP 14) was 0.53 nM and the Ki (murine MMP12) was 0.08 nM.

Work on CC(=O)N1CCC[C@H]1C(=O)N[C@@H](C)C(=O)N[C@@H](Cc1ccccc1)P(=O)(O)CC(Cc1cc(-c2ccc(-c3cccc(Cl)c3)cc2)no1)C(=O)N[C@@H](Cc1ccc(O)cc1)C(=O)N[C@@H](C)C(=O)NCC(=O)NCCCOCCOCCOCCCNC(=O)CCOCCOCCOCCOCCOCCOCCOCCOCCOCOCCOCCOCCOCCOCCOCCOCCOCCOCCOCCOCCOCCOCCOCCOCCNC(=O)CCCN1C(=O)C=CC1=O (stereo partly shown) [Ligand P2] yielded a Ki (human MMP 2) of 0.15 nM, a Ki (human MMP 3) of 1 nM and a Ki (human MMP 8) of 0.12 nM. It also gave a Ki (human MMP 9) of 0.48 nM, a Ki (human MMP 12) of 0.05 nM and a Ki (human MMP 13) of 0.03 nM. The Ki (human MMP 14) was 0.7 nM and the Ki (murine MMP12) was 0.09 nM.
